Measurements: paper PMC12118337, “Development of a Peptide Inhibitor Targeting the C‐SH2 Domain of the SHP2 Phosphatase” (Chembiochem, 2025)
Residues, ends and D or L forms follow the SMILES beside them. *: point of attachment. 5FAM = O=C1OC2(c3ccc(O)cc3Oc3cc(O)ccc32)c2ccc(C(=O)*)cc21; X1 = O=C(O)C(C(=O)O)*

How the values were obtained:
[1] = target: T1, SHP2 C‐SH2 domain (Homo sapiens, UniProt Q06124); assay: Fluorescence polarization (FP) binding assay, SHP2 C-SH2 domain; details: 100 nM FAM-labelled peptide, increasing C-SH2 protein, 50 mM HEPES pH 7.5, 150 mM NaCl, 1 mM EDTA, 0.05% Tween 20, FP at 10 min, three independent experiments in technical triplicates, read-out: K D ± SEM, C‐SH2 (FP)
T1 construct: SHP2 N-SH2 domain (1–105), C-SH2 domain (106–220), PTP domain (224–541) and; His6 (pETM22 vector) (N, cleaved yes); made in house; host or cells: E. coli BL21(DE3)
T1 sequence (Q06124 106-220): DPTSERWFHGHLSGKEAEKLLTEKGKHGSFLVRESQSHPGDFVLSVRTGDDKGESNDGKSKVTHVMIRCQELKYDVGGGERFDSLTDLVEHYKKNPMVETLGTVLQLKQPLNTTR
Protocol: (§1) buffer and stored in 5 mL binding buffer at 4°C. His-tagged 3C protease (0.5 mg; EMBL) was added to the pooled eluted fractions and dialysed using Spectra Por Dialysis Tubing (MWCO 6-8 kDa, 23 mm; Spectrum Labs) in 1 L of binding buffer at 4°C for 3 hours, then overnight in fresh buffer. A new column was prepared by loading 2 mL Ni-NTA Agarose (Invitrogen) as a 50% slurry in EtOH. The column was washed with 10 mL H2O to remove the EtOH and equilibrated with 10 mL binding buffer. The protein/3C protease mixture was loaded onto the column and incubated for 1 hour at 4°C on a rocker. The flow through containing the protein was collected, the column was washed with 100 mL binding buffer and the 3C protease was eluted with 5 mL elution buffer. Protein purification was monitored by SDS-PAGE using NuPAGE 4-12% Bis-Tris Protein Gels (Invitrogen) run in MOPS buffer (50 mM MOPS, 50 mM Tris-HCl pH 7.7, 1 mM EDTA, 0.1% SDS) followed by Coomassie staining using Coomassie Brilliant Blue (Roth). The purified protein was dialysed into the final storage buffer (50 mM HEPES pH 7.5, 150 mM NaCl, 2 mM DTT, 20% glycerol). Aliquots were prepared and stored at -80°C until required. […]
(§2) 4. Fluorescence polarization
Fluorescence polarization (FP) was used to measure the binding of FAM-labelled peptides to the SHP2 C-SH2, SHP2 N-SH2, SHP2 PTP, CSK SH2 or Src SH2 domains. Each peptide was added to increasing concentrations of SHP2 C-SH2, SHP2 N-SH2, SHP2 PTP, CSK SH2 or Src SH2 protein in FP buffer (50 mM HEPES pH 7.5, 150 mM NaCl, 1 mM EDTA, 0.05% Tween 20) to give a final peptide […]
concentration of 100 nM in a final volume of 200 µL. For baseline subtraction, each peptide was added to FP buffer, instead of protein, with a final peptide concentration of 100 nM in a final volume of 200 µL. Samples were mixed gently then 3 x 60 µL of each sample was transferred into triplicate wells in a 96-well plate (OptiPlate-96 F Black; PerkinElmer). The FP was immediately measured on a Synergy H1 Microplate Reader (BioTek) with the excitation and emission monitored at 485 nm and 528 nm, respectively, over 30 minutes. FP values were automatically calculated by the Gen5 3.03 (BioTek) software associated with the microplate reader. Data were analysed in Excel 2016 by subtracting baseline values from FP values at 10 minutes. Data were then further analysed in GraphPad Prism 6 by plotting the baseline subtracted FP values against the protein concentration and fitting the data to a variable slope model of non-linear regression to obtain the KD values. Data are from three independent experiments, each performed in technical triplicates.
5. Isothermal titration calorimetry […]
Analysis Software (Malvern Panalytical). For the data analysis, a 1:1 binding stoichiometry between the Ac-ITSM(pTyr) and SH2 domain was assumed. ITC measurements were performed once.

[2] = test system: CSK SH2 domain; assay: FP binding assay, CSK SH2 domain; details: 100 nM peptide, three independent experiments
Protocol: as §1, with “The flow through containing the protein was collected, the column was washed with 100 mL binding buffer and the 3C protease was eluted with 5 mL elution buffer.” left out, “(Roth).” for “(Roth). The purified protein was dialysed into the final storage buffer (50 mM HEPES pH 7.5, 150 mM NaCl, 2 mM DTT, 20% glycerol). Aliquots were prepared and stored at -80°C until required.”
as §2
Fluorescence polarization (FP) was used to measure the binding of FAM-labelled peptides to the SHP2 C-SH2, SHP2 N-SH2, SHP2 PTP, CSK SH2 or Src SH2 domains. […]
concentration of 100 nM in a final volume of 200 µL. […] The FP was immediately measured on a Synergy H1 Microplate Reader (BioTek) with the excitation and emission monitored at 485 nm and 528 nm, respectively, over 30 minutes. FP values were automatically calculated by the Gen5 3.03 (BioTek) software associated with the microplate reader. […]

- Kd [1]: 1600 ± 388 nM
- binding to CSK SH2 domain compared to SHP2 C‐SH2 domain [2]: at least two orders of magnitude weaker
Structure (SMILES): CC[C@H](C)[C@H](NC(=O)[C@@H](NC(=O)[C@H](C)NC(=O)[C@H](Cc1ccc(OC(C(=O)O)C(=O)O)cc1)NC(=O)[C@H](CCC(=O)O)NC(=O)[C@@H](NC(=O)[C@H](CCC(N)=O)NC(=O)c1ccc2c(c1)C(=O)OC21c2ccc(O)cc2Oc2cc(O)ccc21)[C@@H](C)O)[C@@H](C)O)C(=O)N[C@@H](CCCCN)C(=O)N[C@@H](Cc1c[nH]cn1)C(=O)N1CCC[C@H]1C(N)=O [peptide 26] (5FAM-QTEY(X1)ATIKHP-NH2)
